Measurements from patent publication US20140163099A1, “ANTIMICROBIAL COMPOSITION” (TAKASAGO INTERNATIONAL CORPORATION, priority 2011, published 2014).
Converted amounts (≈) assume the structure as drawn.

Key:
Experiment in all cases: Growth inhibition activity (MIC, agar) against aerobic bacteria
Type in all cases: cell-based
[1] = system: Corynebacterium minutissimum (NBRC15361T); conditions: Corynebacterium minutissimum; strain NBRC15361T; Mueller Hinton Agar, 37 degrees C. overnight; read-out: MIC (Minimum Inhibitory Concentration)
Method: (§1) In the present invention, the growth inhibition activity, which is an indicator of the antimicrobial activity, is evaluated by determining the Minimum Inhibitory Concentration (MIC) with an agar or liquid medium.
(§2) In the test for the growth inhibition activity, the following strains were used as skin-related bacteria: • Staphylococcus epidermidis: Staphylococcus epidermidis (JCM2414T and ATCC 12228) • Staphylococcus aureus: Staphylococcus aureus (NBRC12732 and JCM2151) • Skin indigenous bacteria which introduce a superficial infection: Corynebacterium minutissimum (NBRC15361T) • Armpit odor-causing bacteria: Corynebacterium xerosis (JCM1324)
(§3) The test strains were cultured in the liquid medium which the Bioresource center recommends, and then the test strains were subcultured to a Mueller Hinton Broth (Difco) at 30 degrees C. The grown bacteria were diluted to 10^6 CFU/ml with saline to adjust the bacteria fluids for inoculation.
(§4) Furthermore, in order to examine the growth inhibition activities against the bacteria by the above cooling agents, the concentration of the cooling agents: (3S)-CA20, (3R)-CA20, CA1, CA5, CA15, CA55 or CA MGH was diluted with ethanol to the required level of concentration for the determining the Minimum Inhibitory Concentration to produce the sample liquids.
(§5) Next, 100 μL of each sample liquid was added to 10 mL of a Mueller Hinton Agar (Difco) agar medium solution in a soluble state, and each agar medium solution was poured into a petri dish and solidified to prepare test plates having several concentrations of the sample liquids (several concentrations of the above cooling agents). Subsequently, 5 μL of the above bacteria fluids for inoculation were stamped on the test plates, and then the test plates were cultured at 37 degrees C. overnight.
(§6) In this way, the growth inhibition activities by (3S)-CA20, (3R)-CA20, CA1, CA5, CA15, CA55, CA MGH were examined. The minimum concentration of the cooling agent in which the growth of bacteria could not be confirmed was considered as the MIC (Minimum Inhibitory Concentration).
(§7) The minimum concentration of the cooling agent in which the grown strain could not be confirmed was considered as the MIC (Minimum Inhibitory Concentration).

[2] = system: Staphylococcus aureus (JCM2151); conditions: Staphylococcus aureus; strain JCM2151; Mueller Hinton Agar, 37 degrees C. overnight; read-out: MIC (Minimum Inhibitory Concentration)
Method: as §1, §2, §3, §4, §5, §6, §7

[3] = system: Staphylococcus epidermidis (JCM2414T); conditions: Staphylococcus epidermidis, strain JCM2414T; Mueller Hinton Agar, 37 degrees C. overnight; read-out: MIC (Minimum Inhibitory Concentration)
Method: as §1, §2, §3, §4, §5, §6, §7

[4] = system: Corynebacterium xerosis (JCM1324); conditions: Corynebacterium xerosis; strain JCM1324; Mueller Hinton Agar, 37 degrees C. overnight; read-out: MIC (Minimum Inhibitory Concentration)
Method: as §1, §2, §3, §4, §5, §6, §7

[5] = system: Staphylococcus epidermidis (ATCC 12228); conditions: strain ATCC12228, Mueller Hinton Agar, 37 degrees C. overnight, read-out: MIC (Minimum Inhibitory Concentration)
Method: as §1, §2, §3, §4, §5, §6, §7

[6] = system: Staphylococcus aureus (NBRC12732); conditions: Staphylococcus aureus; strain NBRC12732; Mueller Hinton Agar, 37 degrees C. overnight; read-out: MIC (Minimum Inhibitory Concentration)
Method: as §1, §2, §3, §4, §5, §6, §7

[7] = system: Klebsiella pneumoniae (NBRC13277); conditions: Klebsiella pneumoniae; strain NBRC13277; Mueller Hinton Agar, 37 degrees C. overnight; read-out: MIC (Minimum Inhibitory Concentration)
Method: as §1
(§8) Furthermore, the following bacteria were also used as other general aerobic bacteria: • Escherichia coli: Escherichia coli (NBRC3972) • Pseudomonas aeruginosa: Pseudomonas aeruginosa (NBRC13275) • Bacteria in intestines: Proteus vulgaris (NBRC3167) • Pneumobacillus: Klebsiella pneumoniae (NBRC13277) • Bacillus subtilis: Bacillus subtilis (NBRC3134)
as §3, §4, §5, §6, §7

[8] = system: Proteus vulgaris (NBRC3167); conditions: Proteus vulgaris; strain NBRC3167; Mueller Hinton Agar, 37 degrees C. overnight; read-out: MIC (Minimum Inhibitory Concentration)
Method: as §1, §8, §3, §4, §5, §6, §7

[9] = system: Bacillus subtilis (NBRC3134); conditions: Bacillus subtilis; strain NBRC3134; Mueller Hinton Agar, 37 degrees C. overnight; read-out: MIC (Minimum Inhibitory Concentration)
Method: as §1, §8, §3, §4, §5, §6, §7

[10] = system: Escherichia coli (NBRC3972); conditions: Escherichia coli; strain NBRC3972; Mueller Hinton Agar, 37 degrees C. overnight; read-out: MIC (Minimum Inhibitory Concentration)
Method: as §1, §8, §3, §4, §5, §6, §7

[11] = system: Pseudomonas aeruginosa (NBRC13275); conditions: Pseudomonas aeruginosa; strain NBRC13275; Mueller Hinton Agar, 37 degrees C. overnight; read-out: MIC (Minimum Inhibitory Concentration)
Method: as §1, §8, §3, §4, §5, §6, §7

| Structure (SMILES) | MIC [1] [µg/mL] | MIC [2] [µg/mL] | MIC [3] [µg/mL] | MIC [4] [µg/mL] | MIC [5] [µg/mL] | MIC [6] [µg/mL] | MIC [7] [µg/mL] | MIC [8] [µg/mL] | MIC [9] [µg/mL] | MIC [10] [µg/mL] | MIC [11] [µg/mL] |
| --- | --- | --- | --- | --- | --- | --- | --- | --- | --- | --- | --- |
| CC1CCC(C(C)(C)O)C(O)C1 (stereo not drawn) [CA38, p-menthane-3,8-diol, reference compound] | > 1600 | > 1600 | > 1600 | > 1600 | > 1600 | > 1600 | > 1600 | > 1600 | 800 (≈ 4.64 mM) | > 1600 | > 1600 |
| CC1CCC(C(C)C)C(O)C1 (stereo not drawn) [l-menthol, menthol, reference compound] | 1600 (≈ 10.2 mM) | 1600 (≈ 10.2 mM) | 1600 (≈ 10.2 mM) | 1600 (≈ 10.2 mM) | 1600 (≈ 10.2 mM) | 1600 (≈ 10.2 mM) | 1600 (≈ 10.2 mM) | 1600 (≈ 10.2 mM) | 1600 (≈ 10.2 mM) | 1600 (≈ 10.2 mM) | > 1600 |
| CNC(=O)C(C)(C(C)C)C(C)C [WS-23, N-methyl-2-isopropyl-2,3-dimethylbutanamide, reference compound] | > 1600 | > 1600 | > 1600 | > 1600 | – | > 1600 | > 1600 | > 1600 | > 1600 | > 1600 | > 1600 |
| CC1CCC(C(C)C)C(OCC(C)(O)CO)C1 (stereo not drawn) [CA1, 2-methyl-3-(menthoxy)propane-1,2-diol] | 400 (≈ 1.64 mM) | 400 (≈ 1.64 mM) | 400 (≈ 1.64 mM) | 800 (≈ 3.27 mM) | 800 (≈ 3.27 mM) | 800 (≈ 3.27 mM) | 400 (≈ 1.64 mM) | > 1600 | 400 (≈ 1.64 mM) | > 1600 | > 1600 |

Continued by falling MIC [1], values first:

| MIC [1] [µg/mL] | MIC [2] [µg/mL] | MIC [3] [µg/mL] | MIC [4] [µg/mL] | MIC [5] [µg/mL] | MIC [6] [µg/mL] | MIC [7] [µg/mL] | MIC [8] [µg/mL] | MIC [9] [µg/mL] | MIC [10] [µg/mL] | MIC [11] [µg/mL] | Structure (SMILES) |
| --- | --- | --- | --- | --- | --- | --- | --- | --- | --- | --- | --- |
| 800 (≈ 3.27 mM) | 800 (≈ 3.27 mM) | 800 (≈ 3.27 mM) | 800 (≈ 3.27 mM) | 800 (≈ 3.27 mM) | 800 (≈ 3.27 mM) | 800 (≈ 3.27 mM) | > 1600 | 800 (≈ 3.27 mM) | > 1600 | > 1600 | CC1CCC(C(C)C)C(OCCOCCO)C1 (stereo not drawn) [CA55, 2-(2-menthoxyethoxy)ethanol] |
| 800 (≈ 3.99 mM) | 400 (≈ 2 mM) | 800 (≈ 3.99 mM) | 800 (≈ 3.99 mM) | 800 (≈ 3.99 mM) | 800 (≈ 3.99 mM) | 400 (≈ 2 mM) | 1600 (≈ 7.99 mM) | 800 (≈ 3.99 mM) | > 1600 | > 1600 | CC1CCC(C(C)C)C(OCCO)C1 (stereo not drawn) [CA5, 2-(menthoxy)ethanol] |
| 800 (≈ 3.47 mM) | 800 (≈ 3.47 mM) | 800 (≈ 3.47 mM) | 800 (≈ 3.47 mM) | 1600 (≈ 6.95 mM) | 1600 (≈ 6.95 mM) | 800 (≈ 3.47 mM) | 1600 (≈ 6.95 mM) | 800 (≈ 3.47 mM) | > 1600 | > 1600 | CC1CCC(C(C)C)C(OCC(O)CO)C1 (stereo not drawn) [CA10, 3-menthoxypropane-1,2-diol, reference compound] |
| 200 (≈ 0.933 mM) | 200 (≈ 0.933 mM) | 400 (≈ 1.87 mM) | 400 (≈ 1.87 mM) | 400 (≈ 1.87 mM) | 400 (≈ 1.87 mM) | 200 (≈ 0.933 mM) | > 1600 | 400 (≈ 1.87 mM) | > 1600 | > 1600 | CC1CCC(C(C)C)C(OCCCO)C1 (stereo not drawn) [CA15, 3-menthoxypropan-1-ol] |
| 200 (≈ 0.825 mM) | 100 (≈ 0.413 mM) | 100 (≈ 0.413 mM) | 100 (≈ 0.413 mM) | – | 200 (≈ 0.825 mM) | 200 (≈ 0.825 mM) | > 1600 | 200 (≈ 0.825 mM) | > 1600 | > 1600 | CC(O)CC(=O)OC1CC(C)CCC1C(C)C [(3S)-CA20, menthyl 3-hydroxybutanoate] |
| 100 (≈ 0.471 mM) | 100 (≈ 0.471 mM) | 50 (≈ 0.236 mM) | 100 (≈ 0.471 mM) | 50 (≈ 0.236 mM) | 100 (≈ 0.471 mM) | 50 (≈ 0.236 mM) | 100 (≈ 0.471 mM) | 50 (≈ 0.236 mM) | 800 (≈ 3.77 mM) | 800 (≈ 3.77 mM) | CC1CCC(C(C)C)C(OC(=O)C=O)C1 (stereo not drawn) [CA MGH, menthyl glyoxylate] |
